According to ChEMBL document CHEMBL1201862, “PubChem BioAssay data set” (2004):
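These data come from cells grown in 96-well plates and exposed to compound for 48 hours at five concentrations. GI50: concentration for 50% inhibition of growth.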 Calls of active or inactive are those of the source. Cut-off read from the data, not from the text of the source: active = GI50 up to about 1.1 µM and inactive = higher.

How the values were obtained:
Test in all cases: NCI-60 cell line screen, 48 h
[1] = tested on: UACC-62
[2] = tested on: HL-60
[3] = tested on: TK-10
[4] = tested on: DU-145
[5] = tested on: HCT-116
[6] = tested on: SW-620
[7] = tested on: NCI-H23
[8] = tested on: OVCAR-5
[9] = tested on: BT-549
[10] = tested on: MDA-N
[11] = tested on: Hs-578T
[12] = tested on: IGROV-1
[13] = tested on: ACHN
[14] = tested on: M14
[15] = tested on: SN12C
[16] = tested on: NCI/ADR-RES
[17] = tested on: NCI-H226
[18] = tested on: NCI-H522
[19] = tested on: CCRF-CEM
[20] = tested on: COLO 205

Row | SMILES | GI50 [1] | GI50 [2] | GI50 [3] | GI50 [4] | GI50 [5] | GI50 [6] | GI50 [7] | GI50 [8] | GI50 [9] | GI50 [10] | GI50 [11] | GI50 [12] | GI50 [13] | GI50 [14] | GI50 [15] | GI50 [16] | GI50 [17] | GI50 [18] | GI50 [19] | GI50 [20]
1 | Cc1cc(OCC(=O)O)c(Cl)cc1Cl | > 100 µM (inactive) | > 100 µM (inactive) | > 100 µM (inactive) | > 100 µM (inactive) | > 100 µM (inactive) | > 100 µM (inactive) | > 100 µM (inactive) | > 100 µM (inactive) | > 100 µM (inactive) | > 100 µM (inactive) | > 100 µM (inactive) | > 100 µM (inactive) | > 100 µM (inactive) | > 100 µM (inactive) | > 100 µM (inactive) | > 100 µM (inactive) | > 100 µM (inactive) | > 100 µM (inactive) | – | –
2 | C/C(=N\Nc1nc2ccccc2s1)c1ccc2ccccc2n1 | > 100 µM (inactive) | 23.2 µM (inactive) | 88.7 µM (inactive) | > 100 µM (inactive) | > 100 µM (inactive) | > 100 µM (inactive) | > 100 µM (inactive) | 91 µM (inactive) | > 100 µM (inactive) | > 100 µM (inactive) | 84.1 µM (inactive) | 0.402 µM (active) | > 100 µM (inactive) | 46.2 µM (inactive) | > 100 µM (inactive) | > 100 µM (inactive) | – | 32.3 µM (inactive) | 25.7 µM (inactive) | 75.7 µM (inactive)
3 | N#CC1=C2Sc3ccccc3N2[C@H](c2ccccc2)[C@H]2COC(=O)[C@@H]12 | 67.1 µM (inactive) | – | 38.9 µM (inactive) | > 100 µM (inactive) | > 100 µM (inactive) | 35.2 µM (inactive) | 77.3 µM (inactive) | > 100 µM (inactive) | 27.9 µM (inactive) | > 100 µM (inactive) | > 100 µM (inactive) | – | > 100 µM (inactive) | 52.4 µM (inactive) | – | > 100 µM (inactive) | > 100 µM (inactive) | 11.2 µM (inactive) | 7.45 µM (inactive) | > 100 µM (inactive)
4 | Clc1ccc(C2ON=C(c3ccccc3)N2C23CC4CC(CC(C4)C2)C3)cc1Cl (stereo unspecified) | > 10 µM (inactive) | – | > 10 µM (inactive) | > 10 µM (inactive) | > 10 µM (inactive) | > 10 µM (inactive) | > 10 µM (inactive) | > 10 µM (inactive) | > 10 µM (inactive) | > 10 µM (inactive) | > 10 µM (inactive) | > 10 µM (inactive) | > 10 µM (inactive) | > 10 µM (inactive) | > 10 µM (inactive) | > 10 µM (inactive) | > 10 µM (inactive) | > 10 µM (inactive) | > 10 µM (inactive) | > 10 µM (inactive)
5 | N#CC1=C(S)N(C2OC(CO)C(O)C(O)C2O)C(c2ccccc2)=CC1c1ccco1 (stereo unspecified) | 16.3 µM (inactive) | > 100 µM (inactive) | 44.1 µM (inactive) | > 100 µM (inactive) | 21.3 µM (inactive) | – | 59 µM (inactive) | > 100 µM (inactive) | > 100 µM (inactive) | 93.3 µM (inactive) | 56.5 µM (inactive) | > 100 µM (inactive) | > 10 µM (inactive) | 50.5 µM (inactive) | 40.5 µM (inactive) | > 100 µM (inactive) | > 100 µM (inactive) | 35.7 µM (inactive) | 88.9 µM (inactive) | > 10 µM (inactive)
6 | C(=N\NC1=NCCN1)/c1cccc2cc3ccncc3nc12 | 3.43 µM (inactive) | 1.04 µM (active) | 10.4 µM (inactive) | 7.23 µM (inactive) | 1.57 µM (inactive) | 1.94 µM (inactive) | 11.5 µM (inactive) | – | 16 µM (inactive) | 2.89 µM (inactive) | 3.94 µM (inactive) | 3.24 µM (inactive) | 2.84 µM (inactive) | 12.6 µM (inactive) | 3.15 µM (inactive) | 3.24 µM (inactive) | 8.28 µM (inactive) | 3.33 µM (inactive) | 1.1 µM (active) | 1.21 µM (inactive)
